How the values were obtained:
Test in all cases: relative viability (nuclei count vs DMSO), 5 days (fraction); higher = more cells survive
Tozasertib + Lapatinib = compound: Cc1cc(Nc2cc(N3CCN(C)CC3)nc(Sc3ccc(NC(=O)C4CC4)cc3)n2)n[nH]1 [Tozasertib] + CS(=O)(=O)CCNCc1ccc(-c2ccc3ncnc(Nc4ccc(OCc5cccc(F)c5)c(Cl)c4)c3c2)o1 [Lapatinib] (partner 2 µM)
Method in brief: (§1)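 Each reported value is a median over duplicate plates. It expresses relative viability: treated-well nuclei count divided by vehicle-well nuclei count. Lung cancer cell lines in 1536-well plates were dosed by pin tool a day after seeding, alone with one drug or with a fixed anchor-drug dose plus five library-drug doses (not always all listed) in √10 steps, and nuclei were counted after 5 days.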

Tozasertib + AZD7762 = compound: Cc1cc(Nc2cc(N3CCN(C)CC3)nc(Sc3ccc(NC(=O)C4CC4)cc3)n2)n[nH]1 [Tozasertib] + NC(=O)Nc1cc(-c2cccc(F)c2)sc1C(=O)N[C@H]1CCCNC1 [AZD7762] (partner 0.2 µM)
Method in brief: as §1

Tozasertib + Palbociclib = compound: Cc1cc(Nc2cc(N3CCN(C)CC3)nc(Sc3ccc(NC(=O)C4CC4)cc3)n2)n[nH]1 [Tozasertib] + CC(=O)c1c(C)c2cnc(Nc3ccc(N4CCNCC4)cn3)nc2n(C2CCCC2)c1=O [Palbociclib] (partner 0.5 µM)
Method in brief: as §1

Tozasertib + Pemetrexed = compound: Cc1cc(Nc2cc(N3CCN(C)CC3)nc(Sc3ccc(NC(=O)C4CC4)cc3)n2)n[nH]1 [Tozasertib] + Nc1nc2[nH]cc(CCc3ccc(C(=O)N[C@@H](CCC(=O)O)C(=O)O)cc3)c2c(=O)[nH]1 [Pemetrexed] (partner 0.2 µM)
Method in brief: as §1

| Cell Line | relative viability (Tozasertib + Lapatinib; first compound 0.004 µM) | relative viability (Tozasertib + Lapatinib; first compound 0.01265 µM) | relative viability (Tozasertib + Lapatinib; first compound 0.04 µM) | relative viability (Tozasertib + Lapatinib; first compound 0.1265 µM) | relative viability (Tozasertib + AZD7762; first compound 0.004 µM) | relative viability (Tozasertib + AZD7762; first compound 0.01265 µM) | relative viability (Tozasertib + AZD7762; first compound 0.04 µM) | relative viability (Tozasertib + AZD7762; first compound 0.1265 µM) | relative viability (Tozasertib + Palbociclib; first compound 0.004 µM) | relative viability (Tozasertib + Palbociclib; first compound 0.01265 µM) | relative viability (Tozasertib + Palbociclib; first compound 0.04 µM) | relative viability (Tozasertib + Palbociclib; first compound 0.1265 µM) | relative viability (Tozasertib + Pemetrexed; first compound 0.004 µM) | relative viability (Tozasertib + Pemetrexed; first compound 0.01265 µM) | relative viability (Tozasertib + Pemetrexed; first compound 0.04 µM) | relative viability (Tozasertib + Pemetrexed; first compound 0.1265 µM) |
| --- | --- | --- | --- | --- | --- | --- | --- | --- | --- | --- | --- | --- | --- | --- | --- | --- |
| 201T | 1 | 0.981 | 1.05 | 0.884 | 0.549 | 0.63 | 0.581 | 0.75 | 0.355 | 0.362 | 0.364 | 0.224 | 0.33 | 0.283 | 0.377 | 0.362 |
| A549 | 1.04 | 0.859 | 0.835 | 0.0927 |  |  |  |  |  |  |  |  |  |  |  |  |
| A-427 | 1.09 |  | 1.04 | 0.824 | 0.796 | 0.799 | 0.715 | 0.409 | 0.55 | 0.487 | 0.517 | 0.423 | 1 |  | 0.973 | 0.75 |
| ABC-1 | 1.26 | 1.04 | 1.13 | 1.24 | 1.01 | 0.789 |  | 1.16 | 0.722 | 0.769 | 0.44 | 0.533 |  |  |  |  |
| BEN | 0.73 | 0.886 | 0.696 | 0.577 | 0.761 | 0.678 |  | 0.532 | 0.455 | 0.475 | 0.481 | 0.432 | 0.847 | 0.72 | 0.923 | 0.487 |
| CAL-12T | 0.651 | 0.596 | 0.626 | 0.414 | 0.563 | 0.553 | 0.545 | 0.494 | 0.713 | 0.41 | 0.459 | 0.242 | 1.3 | 1.14 | 1.25 | 1.01 |
| COR-L23 | 1.02 | 0.863 | 0.721 | 0.247 |  |  |  |  | 0.309 | 0.297 | 0.274 | 0.161 | 0.206 | 0.206 | 0.187 | 0.179 |
| COR-L 105 | 0.358 | 0.365 | 0.335 | 0.262 |  |  |  |  | 0.353 | 0.393 | 0.419 | 0.356 | 1.05 | 1.14 | 1.23 | 1.15 |
| ChaGo-K-1 |  |  |  |  | 0.902 | 0.851 | 0.859 | 0.576 | 0.902 | 0.881 | 0.949 | 0.477 | 0.255 | 0.268 | 0.254 | 0.264 |
| EKVX | 0.189 | 0.167 | 0.227 | 0.185 | 0.703 | 0.584 | 0.572 | 0.236 |  | 0.367 | 0.418 | 0.412 | 0.371 | 0.351 | 0.382 | 0.351 |
| EMC-BAC-2 | 0.851 |  | 0.908 | 0.567 | 1.15 | 1.12 | 0.93 | 0.47 | 0.542 | 0.501 | 0.514 | 0.433 | 0.464 | 0.407 | 0.467 | 0.428 |
| EPLC-272H | 0.958 |  | 0.891 |  | 0.147 | 0.249 | 0.192 | 0.301 | 0.367 | 0.313 | 0.318 | 0.356 | 0.341 | 0.381 | 0.258 | 0.206 |
| H3255 | 0.256 | 0.229 | 0.236 | 0.228 | 0.837 | 0.786 | 0.884 | 0.684 | 0.33 | 0.292 | 0.315 | 0.324 | 0.519 | 0.579 | 0.567 | 0.552 |
| HARA |  | 0.695 | 1.02 | 0.246 | 0.353 | 0.247 | 0.209 | 0.123 | 0.333 | 0.248 | 0.262 | 0.207 | 0.24 | 0.27 | 0.274 | 0.203 |
| HCC-15 | 0.992 | 0.852 | 0.92 | 0.751 | 1.49 | 1.06 | 1.26 | 0.964 | 0.752 | 0.675 | 0.73 | 0.621 | 0.232 | 0.234 | 0.228 | 0.228 |
| HCC-44 | 1.06 | 1.02 | 1.06 | 0.862 | 1.05 | 0.994 | 0.929 | 0.845 | 1.03 | 0.954 | 1.02 | 0.874 | 0.677 | 0.552 | 0.604 | 0.599 |
| HCC-78 | 0.985 | 0.58 |  | 0.643 | 0.806 | 0.519 | 0.668 | 0.477 | 0.404 | 0.466 | 0.451 | 0.484 | 0.938 | 0.901 | 0.919 | 0.881 |
| HCC-366 | 1.1 | 0.992 |  | 0.0536 | 0.355 | 0.282 | 0.337 | 0.203 | 0.4 | 0.391 | 0.502 | 0.227 | 0.173 | 0.145 | 0.184 | 0.136 |
| HCC-827 | 0.222 | 0.18 | 0.215 | 0.192 | 0.16 | 0.204 | 0.23 | 0.2 | 0.511 | 0.516 | 0.603 | 0.493 | 0.254 | 0.239 | 0.293 | 0.262 |

From the supplement of paper PMC10307832
